Test system: recombinant retroviruses expressing the LacZ marker gene
Type: cell-based, retrovirus

With `OC[C@H]1O[C@@H]2O[C@H]3[C@H](O)[C@@H](O)[C@@H](O[C@H]4[C@H](O)[C@@H](O)[C@@H](O[C@H]5[C@H](O)[C@@H](O)[C@@H](O[C@H]6[C@H](O)[C@@H](O)[C@@H](O[C@H]7[C@H](O)[C@@H](O)[C@@H](O[C@H]8[C@H](O)[C@@H](O)[C@@H](O[C@H]1[C@H](O)[C@H]2O)O[C@@H]8CO)O[C@@H]7CO)O[C@@H]6CO)O[C@@H]5CO)O[C@@H]4CO)O[C@@H]3CO` [β-cyclodextrin] the “enhancement of the retroviral inactivation, additional factor” value was 10.
